Here are results for 12 compounds from patent US10633419B2, “Immunomodulators” (BRISTOL-MYERS SQUIBB COMPANY, priority 2014, dated 2020).

The structures appear in SMILES notation. Starred links: 1 amine or outer side, 2 acyl side, 3 side chain; linkers in the order of their positions; H or OH if unused. Positions of bridges follow the written chain, without caps; N, C: chain ends. Non-standard residues stand in square brackets, D forms with d. Residues, ends and D or L forms follow the SMILES beside them. Groups on a side chain read outwards from the residue. *: point of attachment. X29 = O=C(O)CCCCCCCCCCCCCCCCC(=O)N[C@H](CCC(=O)NCCCC[C@@H](NC(=O)NCC(=O)[C@H](CSCC(=O)[*:1])N[*:2])C(=O)O)C(=O)O; εLys(α-Octadecanedioyl) = O=C(O)CCCCCCCCCCCCCCCCC(=O)N[C@@H](CCCCN*)C(=O)O; X6 = O=C(O)CCCCCCCCCCCCCCCCC(=O)N[C@@H](CCC(=O)NCCCOCCOCCOCCCN*)C(=O)O; X13 = O=C(O)CCCCCCCCCCCCCCC(=O)N[C@@H](CCC(=O)NCCCOCCOCCOCCCN*)C(=O)O; X25 = CCCCCCCC[C@@H](NC(=O)CCC(=O)NCCCOCCOCCOCCCN*)C(=O)O; Trp(1-CH2COOH) = N[C@@H](Cc1cn(CC(=O)O)c2ccccc12)C(=O)O; X23 = O=C(CCCCOCCOCCOCCCN[*:3])C[C@H](N[*:1])C(=O)[*:2]; X14 = O=C(O)CCCCCCCCCCNC(=O)CCC(=O)NCCCOCCOCCOCCCN*; C16 diacid = O=C(O)CCCCCCCCCCCCCCC(=O)*; γGlu = O=C(O)[C@H](CCC(=O)[*:2])N[*:1]; d(cisHyp) = O=C(O)[C@H]1C[C@@H](O)CN1; Hyp = O=C(O)[C@@H]1C[C@@H](O)CN1; NMeNle = CCCC[C@H](NC)C(=O)O; NMeA = CN[C@@H](C)C(=O)O; Aun = NCCCCCCCCCCC(=O)O; Dab = NCC[C@H](N)C(=O)O; Dap = NC[C@H](N)C(=O)O; Ava = NCCCCC(=O)O

In the assay the target is T1, PD-L1 (Homo sapiens, UniProt Q9NZQ7).
T1 construct: hPDL1(19-239)-TVMV-His; made in house; host or cells: HEK293T
T1 sequence (Q9NZQ7 with tags, fused parts or gaps): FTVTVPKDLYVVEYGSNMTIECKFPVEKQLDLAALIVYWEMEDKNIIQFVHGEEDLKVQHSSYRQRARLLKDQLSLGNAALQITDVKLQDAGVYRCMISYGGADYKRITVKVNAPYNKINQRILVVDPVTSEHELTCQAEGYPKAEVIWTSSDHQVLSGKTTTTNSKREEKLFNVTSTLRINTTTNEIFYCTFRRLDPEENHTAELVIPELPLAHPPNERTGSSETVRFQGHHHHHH
The assay is described as follows: PD-1/PD-L1 Homogenous Time-Resolved Fluorescence (HTRF) binding assay (PD-1-Ig/PD-L1-His). Conditions: inhibition of PD-1-Ig binding to PD-L1-TVMV-His; value given as range class; read-out: HTRF IC50. The method, boiled down:
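HTRF competition in dPBS with 0.1% BSA and 0.05% Tween-20: 20 nM PD-1-Ig added after 15 min compound pre-incubation with 10 nM PD-L1-His, then another 15 min. Signal (665/620 nm) after 30 min with APC anti-His (20 nM) and Eu anti-Ig (1 nM).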
On the technique in general: In TR-FRET formats the signal depends on donor and acceptor labels being close together.
With `CCCC[C@H]1C(=O)N(C)[C@@H](CCCC)C(=O)N[C@@H](CC(C)C)C(=O)N[C@H](C(=O)CNC(=O)N[C@H](CCCCNC(=O)CC[C@@H](NC(=O)CCCCCCCCCCCCCCCCC(=O)O)C(=O)O)C(=O)O)CSCC(=O)N[C@@H](Cc2ccc(O)cc2)C(=O)N(C)[C@@H](C)C(=O)N[C@@H](CC(N)=O)C(=O)N2CCC[C@H]2C(=O)N[C@@H](CN)C(=O)N[C@@H](CC(C)C)C(=O)N2C[C@H](O)C[C@H]2C(=O)N[C@@H](Cc2c[nH]c3ccccc23)C(=O)N[C@@H](CCN)C(=O)N[C@@H](Cc2cn(CC(=O)O)c3ccccc23)C(=O)N1C` [Example 11134] (Y[NMeA]NP[Dap]L[Hyp]W[Dab][Trp(1-CH2COOH)][NMeNle][NMeNle]L; linker N-C via X29), the IC50 fell in the range of 10 to 99 nM.

On to `CCCCCCCC[C@@H](NC(=O)CCC(=O)NCCCOCCOCCOCCCNC(=O)[C@@H]1CSCC(=O)N[C@@H](Cc2ccc(O)cc2)C(=O)N(C)[C@@H](C)C(=O)N[C@@H](CC(N)=O)C(=O)N2CCC[C@H]2C(=O)N[C@@H](CN)C(=O)N[C@@H](CC(C)C)C(=O)N2C[C@H](O)C[C@H]2C(=O)N[C@@H](Cc2c[nH]c3ccccc23)C(=O)N[C@@H](CCN)C(=O)N[C@@H](Cc2cn(CC(=O)O)c3ccccc23)C(=O)N(C)[C@@H](CCCC)C(=O)N(C)[C@@H](CCCC)C(=O)N[C@@H](CC(C)C)C(=O)N1)C(=O)O` [Example 11135] ({CH2CO}-Y[NMeA]NP[Dap]L[Hyp]W[Dab][Trp(1-CH2COOH)][NMeNle][NMeNle]LC-X25; thioether N-14), for which the IC50 was in the range of 10 to 99 nM.

Take `CCCC[C@H]1C(=O)N(C)[C@@H](CCCC)C(=O)N[C@@H](CC(C)C)C(=O)N[C@H](C(=O)NCC(=O)NCC(=O)NCC(=O)NCCCCC(=O)O)CSCC(=O)N[C@@H](Cc2ccc(O)cc2)C(=O)N(C)[C@@H](C)C(=O)N[C@@H](CC(N)=O)C(=O)N2CCC[C@H]2C(=O)N[C@@H](CN)C(=O)N[C@@H](CC(C)C)C(=O)N2C[C@H](O)C[C@@H]2C(=O)N[C@@H](Cc2c[nH]c3ccccc23)C(=O)N[C@@H](CCN)C(=O)N[C@@H](Cc2cn(CC(=O)O)c3ccccc23)C(=O)N1C` [Example 11137] ({CH2CO}-Y[NMeA]NP[Dap]L[d(cisHyp)]W[Dab][Trp(1-CH2COOH)][NMeNle][NMeNle]LCGGG[Ava]-OH; thioether N-14): the IC50 lay in the range of 10 to 99 nM.

In the case of `CCCC[C@H]1C(=O)N(C)[C@@H](CCCC)C(=O)N[C@@H](CC(C)C)C(=O)N[C@H](C(=O)NCCCOCCOCCOCCCNC(=O)CCC(=O)NCCCCCCCCCCC(=O)O)CSCC(=O)N[C@@H](Cc2ccc(O)cc2)C(=O)N(C)[C@@H](C)C(=O)N[C@@H](CC(N)=O)C(=O)N2CCC[C@H]2C(=O)N[C@@H](CN)C(=O)N[C@@H](CC(C)C)C(=O)N2C[C@H](O)C[C@@H]2C(=O)N[C@@H](Cc2c[nH]c3ccccc23)C(=O)N[C@@H](CCN)C(=O)N[C@@H](Cc2cn(CC(=O)O)c3ccccc23)C(=O)N1C` [Example 11138] ({CH2CO}-Y[NMeA]NP[Dap]L[d(cisHyp)]W[Dab][Trp(1-CH2COOH)][NMeNle][NMeNle]LC-X14; thioether N-14), the IC50 fell in the range of 10 to 99 nM.

Consider `CCCC[C@H]1C(=O)N(C)[C@@H](CCCC)C(=O)N[C@@H](CC(C)C)C(=O)N[C@H](C(=O)NCCCOCCOCCOCCCNC(=O)CCC(=O)NCCCCCCCCCCC(=O)O)CSCC(=O)N[C@@H](Cc2ccc(O)cc2)C(=O)N(C)[C@@H](C)C(=O)N[C@@H](CCC(=O)O)C(=O)N2CCC[C@H]2C(=O)N[C@@H](Cc2cnc[nH]2)C(=O)N[C@@H](CCCCN)C(=O)N2C[C@H](O)C[C@H]2C(=O)N[C@@H](Cc2c[nH]c3ccccc23)C(=O)N[C@@H](CCCCN)C(=O)N[C@@H](Cc2cn(CC(=O)O)c3ccccc23)C(=O)N1C` [Example 11139] ({CH2CO}-Y[NMeA]EPHK[Hyp]WK[Trp(1-CH2COOH)][NMeNle][NMeNle]LC-X14; thioether N-14), for which the IC50 fell in the range of 10 to 99 nM.

Consider `CCCC[C@H]1C(=O)N(C)[C@@H](CCCC)C(=O)N[C@@H](CC(C)C)C(=O)N[C@H](C(=O)NCC(=O)NCCCC[C@H](NC(=O)CCCCCCCCCCCCCCCCC(=O)O)C(=O)O)CSCC(=O)N[C@@H](Cc2ccc(O)cc2)C(=O)N(C)[C@@H](C)C(=O)N[C@@H](CC(N)=O)C(=O)N2CCC[C@H]2C(=O)N[C@@H](CN)C(=O)N[C@@H](CC(C)C)C(=O)N2C[C@H](O)C[C@@H]2C(=O)N[C@@H](Cc2c[nH]c3ccccc23)C(=O)N[C@@H](CCN)C(=O)N[C@@H](Cc2cn(CC(=O)O)c3ccccc23)C(=O)N1C` [Example 11141] ({CH2CO}-Y[NMeA]NP[Dap]L[d(cisHyp)]W[Dab][Trp(1-CH2COOH)][NMeNle][NMeNle]LCG-{εLys(α-Octadecanedioyl)}; thioether N-14), for which the IC50 lay in the range of 10 to 99 nM.

Regarding `CCCC[C@H]1C(=O)N(C)[C@@H](CCCC)C(=O)N[C@@H](CC(C)C)C(=O)N[C@H](C(=O)NCCCC[C@H](NC(=O)CCCCCCCCCCCCCCCCC(=O)O)C(=O)O)CSCC(=O)N[C@@H](Cc2ccc(O)cc2)C(=O)N(C)[C@@H](C)C(=O)N[C@@H](CC(N)=O)C(=O)N2CCC[C@H]2C(=O)N[C@@H](CN)C(=O)N[C@@H](CC(C)C)C(=O)N2C[C@H](O)C[C@@H]2C(=O)N[C@@H](Cc2c[nH]c3ccccc23)C(=O)N[C@@H](CCN)C(=O)N[C@@H](Cc2cn(CC(=O)O)c3ccccc23)C(=O)N1C` [Example 11143] ({CH2CO}-Y[NMeA]NP[Dap]L[d(cisHyp)]W[Dab][Trp(1-CH2COOH)][NMeNle][NMeNle]LC-{εLys(α-Octadecanedioyl)}; thioether N-14), the IC50 fell in the range of 0.3 to 9.9 nM.

For the compound `CCCC[C@H]1C(=O)N(C)[C@@H](CCCC)C(=O)N[C@@H](CCC(=O)O)C(=O)N[C@H](C(=O)NCC(=O)NCC(=O)NCC(=O)NCCCCCCCCCCC(=O)O)CSCC(=O)N[C@@H](Cc2ccc(O)cc2)C(=O)N(C)[C@@H](C)C(=O)N[C@@H](CC(=O)O)C(=O)N2CCC[C@H]2C(=O)N[C@@H](CN)C(=O)N[C@@H](CC(C)C)C(=O)N2C[C@H](O)C[C@@H]2C(=O)N[C@@H](Cc2c[nH]c3ccccc23)C(=O)N[C@@H](CCN)C(=O)N[C@@H](Cc2cn(CC(=O)O)c3ccccc23)C(=O)N1C` [Example 11144] ({CH2CO}-Y[NMeA]DP[Dap]L[d(cisHyp)]W[Dab][Trp(1-CH2COOH)][NMeNle][NMeNle]ECGGG[Aun]-OH; thioether N-14), the IC50 was in the range of 10 to 99 nM.

Regarding `CCCC[C@H]1C(=O)N(C)[C@@H](CCCC)C(=O)N[C@@H](CCC(=O)O)C(=O)N[C@H](C(=O)NCCCOCCOCCOCCCNC(=O)CCC(=O)NCCCCCCCCCCC(=O)O)CSCC(=O)N[C@@H](Cc2ccc(O)cc2)C(=O)N(C)[C@@H](C)C(=O)N[C@@H](CC(=O)O)C(=O)N2CCC[C@H]2C(=O)N[C@@H](CN)C(=O)N[C@@H](CC(C)C)C(=O)N2C[C@H](O)C[C@@H]2C(=O)N[C@@H](Cc2c[nH]c3ccccc23)C(=O)N[C@@H](CCN)C(=O)N[C@@H](Cc2cn(CC(=O)O)c3ccccc23)C(=O)N1C` [Example 11145] ({CH2CO}-Y[NMeA]DP[Dap]L[d(cisHyp)]W[Dab][Trp(1-CH2COOH)][NMeNle][NMeNle]EC-X14; thioether N-14), the IC50 lay within 0.3 to 9.9 nM.

On to `CCCC[C@H]1C(=O)N(C)[C@@H](CCCC)C(=O)N[C@@H](CC(C)C)C(=O)N[C@H](C(=O)NCC(=O)N[C@@H](CC(=O)CCCCOCCOCCOCCCNC(=O)CC[C@H](NC(=O)CCCCCCCCCCCCCCC(=O)O)C(=O)O)C(=O)O)CSCC(=O)N[C@@H](Cc2ccc(O)cc2)C(=O)N(C)[C@@H](C)C(=O)N[C@@H](CC(N)=O)C(=O)N2CCC[C@H]2C(=O)N[C@@H](CN)C(=O)N[C@@H](CC(C)C)C(=O)N2C[C@H](O)C[C@@H]2C(=O)N[C@@H](Cc2c[nH]c3ccccc23)C(=O)N[C@@H](CCN)C(=O)N[C@@H](Cc2cn(CC(=O)O)c3ccccc23)C(=O)N1C` [Example 11158] ({CH2CO}-Y[NMeA]NP[Dap]L[d(cisHyp)]W[Dab][Trp(1-CH2COOH)][NMeNle][NMeNle]LCG[X23]([γGlu-C16 diacid])-OH; thioether N-14), for which the IC50 lay in the range of 10 to 99 nM.

Turning to `CCCC[C@H]1C(=O)N(C)[C@@H](CCCC)C(=O)N[C@@H](CC(C)C)C(=O)N[C@H](C(=O)NCC(=O)N[C@@H](CCC(=O)NCCCOCCOCCOCCCNC(=O)CC[C@H](NC(=O)CCCCCCCCCCCCCCC(=O)O)C(=O)O)C(=O)O)CSCC(=O)N[C@@H](Cc2ccc(O)cc2)C(=O)N(C)[C@@H](C)C(=O)N[C@@H](CC(N)=O)C(=O)N2CCC[C@H]2C(=O)N[C@@H](CN)C(=O)N[C@@H](CC(C)C)C(=O)N2C[C@H](O)C[C@@H]2C(=O)N[C@@H](Cc2c[nH]c3ccccc23)C(=O)N[C@@H](CCN)C(=O)N[C@@H](Cc2cn(CC(=O)O)c3ccccc23)C(=O)N1C` [Example 11159] ({CH2CO}-Y[NMeA]NP[Dap]L[d(cisHyp)]W[Dab][Trp(1-CH2COOH)][NMeNle][NMeNle]LCGE(X13)-OH; thioether N-14), the IC50 was 10 to 99 nM.

For `CCCC[C@H]1C(=O)N(C)[C@@H](CCCC)C(=O)N[C@@H](CC(C)C)C(=O)N[C@H](C(=O)NCC(=O)N[C@@H](CC(=O)NCCCOCCOCCOCCCNC(=O)CC[C@H](NC(=O)CCCCCCCCCCCCCCCCC(=O)O)C(=O)O)C(=O)O)CSCC(=O)N[C@@H](Cc2ccc(O)cc2)C(=O)N(C)[C@@H](C)C(=O)N[C@@H](CC(N)=O)C(=O)N2CCC[C@H]2C(=O)N[C@@H](CN)C(=O)N[C@@H](CC(C)C)C(=O)N2C[C@H](O)C[C@@H]2C(=O)N[C@@H](Cc2c[nH]c3ccccc23)C(=O)N[C@@H](CCN)C(=O)N[C@@H](Cc2cn(CC(=O)O)c3ccccc23)C(=O)N1C` [Example 11160] ({CH2CO}-Y[NMeA]NP[Dap]L[d(cisHyp)]W[Dab][Trp(1-CH2COOH)][NMeNle][NMeNle]LCGD(X6)-OH; thioether N-14), the IC50 is 100 to 1600 nM.

What is called IC50 is the concentration at which inhibition is half-maximal.
